According to publication PMC11744766, “Dual Inhibitors of SARS-CoV-2 3CL Protease and Human Cathepsin L Containing Glutamine Isosteres Are Anti-CoV-2 Agents” (Journal of the American Chemical Society, 2025):
Where “and” joins values, the source holds several entries; their conditions need not be identical. Equal entries are not always repeated. Where two headings read alike, the source gives them in different places.

Key:
human cathepsin L [1] = molecular target: T1, human cathepsin L (Homo sapiens, UniProt P07711); details: read-out: Ki (hCatL), cited from earlier work
T1 construct: His-tag (only implied by the Ni-NTA capture and the pET-28a(+) vector); host or cells: E. coli C43(DE3)

[2] = molecular target: T2, SARS-CoV-2 3CL protease (3CL-PR) (Severe acute respiratory syndrome coronavirus 2, UniProt P0DTC1); details: cited from earlier work; for Ki: read-out: Ki (3CL-PR)
[3] = molecular target: T2, SARS-CoV-2 3CL protease (3CL-PR); test: biochemical; assay type: biochemical
human cathepsin L [4] = molecular target: T1, human cathepsin L; test: Kinetic assay of human cathepsin L inhibition (Z-LR-AMC / Z-FR-AMC fluorescence); assay type: biochemical; details: for mode of inhibition of hCatL: inhibitor vs variable substrate
[5] = test system: SARS-CoV-2 (USA_WA1/2020 isolate); test: Vero E6-based microneutralization assay of SARS-CoV-2 infection (CPE); assay type: cell-based; details: for fold less potent in inhibiting SARS-CoV-2 infection than Nirmatrelvir and PF-835231: ratio of EC50
human cathepsin B = molecular target: T3, human cathepsin B (Homo sapiens, UniProt P07858); test: Kinetic assay of human cathepsin B inhibition (Z-LR-AMC fluorescence); assay type: biochemical
T3 construct: purchased Millipore Sigma or R&D Systems

[6] = 25 °C, pH 7.5, time-dependent inhibitors at t ∼ 30 min (steady-state), read-out: Ki * (nM) 3CL-PR
[7] = 25 °C, pH 5.5, time-dependent inhibitors at t ∼ 30 min (steady-state), read-out: Ki * (nM) hCat L
[8] = Severe acute respiratory syndrome coronavirus 2, Vero C1008, 72 h, Vero E6 cells, 2 μM CP-100356, CPE after 3 days, read-out: Anti-SARS-CoV-2 Activity EC50
[9] = 25 °C, pH 5.5, time-dependent inhibitors at t ∼ 30 min (steady-state), read-out: Ki * (nM) hCat B
[10] = initial rates, t = 0–3 min, read-out: Ki (hCatB) from initial rates vi/v0

T1 sequence (P07711 114-333): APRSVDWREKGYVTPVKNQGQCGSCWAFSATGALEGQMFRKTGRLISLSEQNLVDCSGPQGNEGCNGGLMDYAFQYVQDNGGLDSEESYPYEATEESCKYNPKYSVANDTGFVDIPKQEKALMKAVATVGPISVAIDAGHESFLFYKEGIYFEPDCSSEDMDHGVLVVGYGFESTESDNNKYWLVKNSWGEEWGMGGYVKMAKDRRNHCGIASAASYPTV

Compound: CC(C)C[C@H](NC(=O)c1cc2ccccc2[nH]1)C(=O)N[C@H](C=O)C[C@@H]1CCNC1=O [AC1115, reference compound]
- Ki (human cathepsin L [1]; AC1115): ~0.06 nM
- Ki ([2]; AC1115): 2.4 nM

Compound: CN1CCN(C(=O)NC(Cc2ccccc2)C(=O)NC2Cc3ccccc3OC2O)CC1 (centres unmarked) [Compound 1]
- inhibition of 3CL-PR ([2]; compound 1): did not inhibit
- Ki ([2]; compound 1): > 10000 nM

Compound: CN1CCN(C(=O)NC(Cc2ccccc2)C(=O)NC2Cc3cccnc3OC2O)CC1 (centres unmarked) [Compound 2]
- Ki (human cathepsin L [1]; compounds 1 and 2): 1.03 nM and 1 nM
- Ki ([2]; compound 2): 250 nM

Compound: CC(C)C[C@H](NC(=O)OCc1ccccc1)C(=O)N[C@@H](CC1CCCCC1)C(=O)N[C@H](C=O)Cc1ccc[nH]c1=O [Compound 3]
- Ki [3, 6]: 9 ± 2 nM
- Ki ([3]; competitive pattern at < 10 min incubation (Figure S1B), read-out: Ki (3CL-PR) before longer incubation): 16 nM
- mode of inhibition of 3CL-PR ([3]; inhibitor vs variable substrate): competitive inhibitor
- fold less potent vs 3CL-PR than Nirmatrelvir ([3]; ratio of Ki): 3 fold
- Ki (human cathepsin L [4]; [7]): 8 ± 1 nM
- mode of inhibition of hCatL (human cathepsin L [4]): competitive inhibitor
- EC50 [5, 8]: 0.47 µM
- fold less potent in inhibiting SARS-CoV-2 infection than Nirmatrelvir and PF-835231 ([5]; Vero E6 cells): 2 fold
- Ki (human cathepsin B; [9]): 280 ± 5 nM
- Ki (human cathepsin B; [10]): 290 nM

Compound: CC(C)CC(NC(=O)c1cc2ccccc2[nH]1)C(=O)NC(C=O)Cc1ccc[nH]c1=O (centres unmarked) [Compound 4]
- Ki [3, 6]: 38 ± 4 nM
- Ki (human cathepsin L [4]; [7]): 17 ± 1 nM
- EC50 [5, 8]: 15 µM
- Ki (human cathepsin B; [9]): 210 ± 20 nM

Compound: O=CC(Cc1ccc[nH]c1=O)NC(=O)C(CC1CCCCC1)NC(=O)c1cc2ccccc2[nH]1 (centres unmarked) [Compound 5]
- Ki [3, 6]: 27 ± 5 nM
- fold improvement in inhibition of 3CL-PR, 5 over 4 ([3]; CHA for Leu at P2): 1.5 fold
- Ki (human cathepsin L [4]; [7]): 9 ± 2 nM
- fold improvement in inhibition of hCatL, 5 over 4 (human cathepsin L [4]; CHA for Leu at P2): 2 fold
- mode of inhibition of hCatL (human cathepsin L [4]): competitive inhibitor
- EC50 [5, 8]: 1.9 µM
- fold less potent in inhibiting SARS-CoV-2 infection than Nirmatrelvir and PF-835231 ([5]; Vero E6 cells): eight-fold less active
- Ki (human cathepsin B; [9]): 101 ± 3 nM

Compound: COc1cccc2[nH]c(C(=O)NC(CC(C)C)C(=O)NC(C=O)Cc3ccc[nH]c3=O)cc12 (centres unmarked) [Compound 6]
- fold more potent vs 3CL-PR, 6 compared to 8 [3]: 50 fold
- fold improvement in inhibition of 3CL-PR, 6 over 4 ([3]; 4-methoxy group on indole): 15 fold
- Ki [3, 6]: 2.6 ± 0.4 nM
- Ki ([3]; initial rates, t = 0–180 s, read-out: Ki (3CL-Pro) from initial rates vi/v0): 20 ± 2 nM
- fold improvement in inhibition of hCatL, 6 over 4 (human cathepsin L [4]; 4-methoxy group on indole): 30 fold
- Ki (human cathepsin L [4]; [7]): 0.6 nM and 0.55 nM
- Ki (human cathepsin L [4]; initial rates, t = 0–180 s, read-out: Ki (hCatL) from initial rates vi/v0): 2.3 ± 0.4 nM
- EC50 [5, 8]: 1.25 µM
- fold less potent in inhibiting SARS-CoV-2 infection than Nirmatrelvir and PF-835231 ([5]; Vero E6 cells): five-fold less potent
- fold less anti-CoV-2 activity in comparison to AC1115 ([5]; not evaluated under the same conditions): 4 fold
- Ki (human cathepsin B; [9]): 100 ± 2 nM
- Ki (human cathepsin B; [10]): 65 ± 3 nM

Compound: COc1cccc2[nH]c(C(=O)N[C@@H](CC(C)C)C(=O)N[C@H](C=O)Cc3cocn3)cc12 [Compound 8]
- Ki [3, 6]: 124 ± 5 nM
- Ki (human cathepsin L [4]; [7]): 1.1 ± 0.1 nM
- EC50 ([5]; Severe acute respiratory syndrome coronavirus 2, Vero C1008, 72 h, read-out: Anti-SARS-CoV-2 Activity EC50 (μM), Vero E6 cells, 2 μM CP-100356, CPE after 3 days): 0.62 µM
- EC50 ([5]; Vero E6 cells, 2 μM CP-100356, CPE after 3 days, read-out: Anti-SARS-CoV-2 Activity EC50): 0.625 µM
- Ki (human cathepsin B; [9]): 189 ± 9 nM

Compound: CN1CCN(C(=O)N[C@@H](Cc2ccccc2)C(=O)N[C@H](/C=C/S(=O)(=O)c2ccccc2)CCc2ccccc2)CC1 [Compound K11777, reference compound]
- Ki ([2]; K11777): > 10000 nM

Compound: CC(C)(C)[C@H](NC(=O)C(F)(F)F)C(=O)N1C[C@H]2[C@@H]([C@H]1C(=O)N[C@H](C#N)C[C@@H]1CCNC1=O)C2(C)C [Nirmatrelvir, reference compound]
- EC50 [5, 8]: 0.23 µM

Compound: COc1cccc2[nH]c(C(=O)N[C@@H](CC(C)C)C(=O)N[C@@H](C[C@@H]3CCNC3=O)C(=O)CO)cc12 [PF-835231, reference compound]
- Ki [3, 6]: 0.23 ± 0.09 nM
- fold more potent than Nirmatrelvir vs 3CL-PR ([3]; ratio of Ki): more than 10 fold
- EC50 [5, 8]: 0.23 µM
